Results as given in ChEMBL document CHEMBL1201862, “PubChem BioAssay data set” (2004).
Several values for one entry are separate records, joined by “and”; a condition that tells them apart may be missing. Equal values may be shown once. Activity calls are given as the source filed them.

What was measured:
[1] = molecular target: Cytochrome P450 2C19 (Homo sapiens, UniProt P33261); experiment: Cytochrome panel assay with activity outcomes. Panel member name: p450-cyp2c19 Compounds with AC50 equal or less than 10 uM are considered active; type: functional; details: read-out: AC50
Cytochrome P450 2C19, sequence (P33261 whole entry): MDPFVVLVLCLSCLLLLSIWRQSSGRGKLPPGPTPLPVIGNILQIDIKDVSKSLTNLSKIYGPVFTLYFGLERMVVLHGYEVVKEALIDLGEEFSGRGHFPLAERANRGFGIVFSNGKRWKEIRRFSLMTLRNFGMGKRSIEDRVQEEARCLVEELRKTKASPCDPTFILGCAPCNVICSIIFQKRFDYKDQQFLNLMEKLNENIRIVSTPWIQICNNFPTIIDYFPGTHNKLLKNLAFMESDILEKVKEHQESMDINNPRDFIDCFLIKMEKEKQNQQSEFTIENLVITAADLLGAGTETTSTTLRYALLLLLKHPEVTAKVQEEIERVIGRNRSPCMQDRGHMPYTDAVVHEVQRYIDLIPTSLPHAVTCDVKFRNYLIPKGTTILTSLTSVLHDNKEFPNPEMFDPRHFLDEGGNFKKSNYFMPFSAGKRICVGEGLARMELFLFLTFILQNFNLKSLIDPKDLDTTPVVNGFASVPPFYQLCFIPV

[2] = molecular target: T1, Cytochrome P450 1A2 (Homo sapiens, UniProt P05177)
T1 sequence (P05177 whole entry): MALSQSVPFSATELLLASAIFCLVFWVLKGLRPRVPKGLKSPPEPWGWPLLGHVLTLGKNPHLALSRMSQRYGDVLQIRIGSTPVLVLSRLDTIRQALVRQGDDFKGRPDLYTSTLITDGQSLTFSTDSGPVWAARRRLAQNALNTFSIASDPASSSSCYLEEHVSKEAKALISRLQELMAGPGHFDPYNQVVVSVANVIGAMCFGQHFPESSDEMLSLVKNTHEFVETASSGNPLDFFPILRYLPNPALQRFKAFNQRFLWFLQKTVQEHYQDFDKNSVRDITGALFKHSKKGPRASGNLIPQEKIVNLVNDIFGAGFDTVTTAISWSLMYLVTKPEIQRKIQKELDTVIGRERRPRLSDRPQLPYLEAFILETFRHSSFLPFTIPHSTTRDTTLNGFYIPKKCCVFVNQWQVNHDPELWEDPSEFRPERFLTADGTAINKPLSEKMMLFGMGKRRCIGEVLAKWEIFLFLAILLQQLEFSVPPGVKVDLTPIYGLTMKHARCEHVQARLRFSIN

[3] = molecular target: Cytochrome P450 2C9 (Homo sapiens, UniProt P11712)
Cytochrome P450 2C9, sequence (P11712 whole entry): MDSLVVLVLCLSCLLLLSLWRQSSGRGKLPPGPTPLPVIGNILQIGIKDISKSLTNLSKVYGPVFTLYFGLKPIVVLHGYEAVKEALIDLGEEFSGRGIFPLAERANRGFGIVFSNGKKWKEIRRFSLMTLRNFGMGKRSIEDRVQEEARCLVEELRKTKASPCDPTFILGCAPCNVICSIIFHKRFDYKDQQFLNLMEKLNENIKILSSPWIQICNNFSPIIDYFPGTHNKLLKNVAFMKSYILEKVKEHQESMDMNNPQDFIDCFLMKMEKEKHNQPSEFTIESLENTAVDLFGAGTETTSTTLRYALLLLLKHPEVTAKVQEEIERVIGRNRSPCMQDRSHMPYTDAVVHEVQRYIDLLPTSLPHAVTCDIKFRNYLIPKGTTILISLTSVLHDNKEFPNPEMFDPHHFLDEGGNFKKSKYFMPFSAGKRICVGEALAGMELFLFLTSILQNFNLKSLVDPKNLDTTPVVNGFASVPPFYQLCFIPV

[4] = molecular target: T2, Heat shock factor protein 1 (Mus musculus, UniProt P38532); experiment: HSF1 potentiators in luciferase reporter cells, confirmation, cell-based, NIH3T3, luminescence, dose retest (AID 435004); type: functional;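 note: stress induced by proteasome inhibitor MG132 added 30 min after compound; luciferase reporter driven by HSF1 response element in NIH3T3 cells; actives raise luminescence as potentiators of the MG132 stress response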
T2 sequence (P38532 whole entry): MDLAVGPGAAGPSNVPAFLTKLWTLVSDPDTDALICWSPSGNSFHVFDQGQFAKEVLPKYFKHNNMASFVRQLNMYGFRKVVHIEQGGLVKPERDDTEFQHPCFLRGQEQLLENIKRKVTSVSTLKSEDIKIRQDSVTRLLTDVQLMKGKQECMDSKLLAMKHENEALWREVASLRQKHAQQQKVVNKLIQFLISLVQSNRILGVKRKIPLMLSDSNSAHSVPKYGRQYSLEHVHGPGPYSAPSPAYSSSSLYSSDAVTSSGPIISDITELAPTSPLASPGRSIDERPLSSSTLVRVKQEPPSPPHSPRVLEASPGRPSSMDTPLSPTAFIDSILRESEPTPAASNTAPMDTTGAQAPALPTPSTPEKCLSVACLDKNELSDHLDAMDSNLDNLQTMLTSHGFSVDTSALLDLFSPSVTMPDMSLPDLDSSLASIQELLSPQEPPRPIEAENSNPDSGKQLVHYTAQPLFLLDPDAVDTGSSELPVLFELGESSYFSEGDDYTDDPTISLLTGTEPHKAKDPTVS

[5] = HEp-2 cell cytotoxicity, dose response, cytotoxicity control for RSV inhibitor project, HTS (AID 2410); type: functional; details: human respiratory syncytial virus
[6] = molecular target: Paired box protein Pax-8 (Homo sapiens, UniProt Q06710); experiment: inhibitors of PAX8-driven TPO luciferase reporter, dose response, RMG-I cells, cherry-pick (AID 687027); type: functional, cell-based;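 note: luciferase reporter driven by Pax8 target thyroperoxidase promoter measured by SteadyGlo luminescence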
Paired box protein Pax-8, sequence (Q06710 whole entry): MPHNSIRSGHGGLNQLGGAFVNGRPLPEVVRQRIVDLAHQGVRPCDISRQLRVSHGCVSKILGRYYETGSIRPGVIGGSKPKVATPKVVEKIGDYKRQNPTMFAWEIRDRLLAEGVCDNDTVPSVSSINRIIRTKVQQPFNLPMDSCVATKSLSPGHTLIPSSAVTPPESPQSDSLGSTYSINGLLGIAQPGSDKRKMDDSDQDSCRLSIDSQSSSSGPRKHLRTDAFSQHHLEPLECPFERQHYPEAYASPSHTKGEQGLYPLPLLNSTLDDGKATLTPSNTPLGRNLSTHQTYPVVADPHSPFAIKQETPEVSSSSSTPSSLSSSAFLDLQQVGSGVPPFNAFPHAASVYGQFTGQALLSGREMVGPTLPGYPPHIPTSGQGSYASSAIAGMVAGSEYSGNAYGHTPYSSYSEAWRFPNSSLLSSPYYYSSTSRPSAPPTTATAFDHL

[7] = inhibitors of intracellular T. cruzi replication, confirmation, NIH3T3 host cells, beta-gal luminescence (AID 2044); type: functional, cell-based;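 note: intracellular parasites grown in NIH/3T3 mouse fibroblasts as host cells; luminescent beta-galactosidase reporter signal from transgenic T. cruzi replicating inside host cells; inhibitors lower the luminescence signal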
[8] = cytotoxicity toward NIH3T3 fibroblasts, dose response, counter-screen, cell-based, ATP luminescence, mouse fibroblasts (AID 2010); type: functional;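 note: cells exposed to compound for about 90 hours before reading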
[9] = test system: Streptococcus; experiment: Group A Streptococcus viability loss, dose response, counter-screen for streptokinase expression inhibitor project, luminescence, BacTiterGlo (AID 1915); type: functional, organism-based;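 note: potency for reduction of bacterial viability or growth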
[10] = molecular target: T3, Streptokinase A (Streptococcus pyogenes serotype M1, UniProt P10520); experiment: S. pyogenes streptokinase expression inhibitors, potency, dose response, plasminogen activation absorbance, OD405 (AID 1914); type: functional, Streptococcus pyogenes M1 GAS;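 note: secreted streptokinase activity via plasminogen activation per viability signal from cell pellet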
T3 sequence (P10520 whole entry): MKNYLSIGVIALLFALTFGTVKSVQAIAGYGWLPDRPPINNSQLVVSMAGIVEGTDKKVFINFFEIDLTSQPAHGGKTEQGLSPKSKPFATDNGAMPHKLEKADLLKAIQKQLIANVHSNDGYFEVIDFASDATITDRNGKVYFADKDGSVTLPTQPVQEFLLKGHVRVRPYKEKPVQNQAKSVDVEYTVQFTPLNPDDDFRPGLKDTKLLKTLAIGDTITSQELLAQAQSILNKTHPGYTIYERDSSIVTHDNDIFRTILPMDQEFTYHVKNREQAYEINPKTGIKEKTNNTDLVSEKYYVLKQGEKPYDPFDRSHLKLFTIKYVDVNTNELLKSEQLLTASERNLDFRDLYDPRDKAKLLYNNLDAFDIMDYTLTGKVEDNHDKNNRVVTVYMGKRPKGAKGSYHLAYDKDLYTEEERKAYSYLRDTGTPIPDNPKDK

[11] = test system: Streptococcus sp. 'group A'; experiment: growth inhibition of control SK(-) GAS strain, dose response, counter-screen for streptokinase expression inhibitor project, luminescence, kanamycin, BacTiterGlo, confirmation (AID 1900); type: functional, organism-based

Structure (SMILES): COC(=O)CSC(C(=O)Nc1ccc(C)c(C)c1)c1ccccc1 (configuration not stated)
- AC50 [1]: 0.398 µM (inconclusive)
- AC50 [2]: 8.91 µM (inconclusive)

Structure (SMILES): CC[C@H](C(=O)c1cccs1)C(O)(C(F)(F)F)C(F)(F)F
- AC50 [1]: 2 µM (inconclusive)
- AC50 [3]: 7.94 µM (inconclusive)

Structure (SMILES): Cc1cc(C)cc(OCC(=O)O/N=C(\N)Cc2ccc([N+](=O)[O-])cc2)c1
- EC50 [4]: > 260 µM (inactive)

Structure (SMILES): CC(=O)CSc1ncnc2sc3c(c12)CCC3
- CC50 [5]: 32.7 µM (active)

Structure (SMILES): O=C1C2CC=CCC2C(=O)N1Cc1nnc(-c2ccc(Cl)cc2)o1 (configuration not stated)
- EC50 [4]: 39.1 µM (active)

Structure (SMILES): O=C(CCc1ccc(S(=O)(=O)NCc2ccccc2)cc1)NCc1cccnc1
- AC50 [6]: 41.5 µM (active)

Structure (SMILES): Fc1ccc(CCNCc2ccc(Cl)c(Cl)c2)cc1
- EC50 [7]: 0.122 µM (active)
- EC50 [8]: > 30 µM (not active)
- AC50 [3]: 17.8 µM (inconclusive)

Structure (SMILES): Cc1nc(SCCOc2ccc(F)cc2)c2ccccc2n1
- EC50 [4]: 38.7 µM (active)

Structure (SMILES): COc1cccc(CNC(=O)Cn2nc(C)c([N+](=O)[O-])c2C)c1
- EC50 [4]: > 260 µM (inactive)

Structure (SMILES): Cc1ccc(C)c(CSC2=NCCN2C(=O)Cc2ccc([N+](=O)[O-])cc2)c1
- AC50 [6]: 26.3 µM (active)

Structure (SMILES): CC(C)Oc1cc(-n2c(=S)[nH]c3ccccc3c2=O)c(Cl)cc1Cl
- AC50 [2]: 12.6 µM (inconclusive)

Structure (SMILES): CCN=C(S)NNC(=O)c1csc2c1CCCC2
- CC50 [5]: 17.9 µM (active)

Structure (SMILES): CCOC(=O)COc1cc(OCC(=O)OCC)c2c(=O)cc(-c3ccccc3)oc2c1
- AC50 [2]: 15.8 µM (inconclusive)

Structure (SMILES): COc1ccc(NS(=O)(=O)c2cccc(C(=O)N(C)Cc3ccc(SC)cc3)c2)cc1
- EC50 [4]: > 260 µM (inactive)

Structure (SMILES): COC(=O)[C@@]1(Cc2ccc(OC)cc2)[C@H]2c3cc(C(=O)N4CCCC4)n(CCN4CCOCC4)c3C[C@H]2CN1C(=O)c1ccccc1
- AC50 [1]: 31.6 µM (inconclusive)
- AC50 [3]: 31.6 µM (inconclusive)

Structure (SMILES): N=C(N)NC(=O)c1nc(Cl)c(N)nc1N [AMILORIDE]
- AC50 [2]: 39.8 µM (inconclusive) and 12.6 µM (inconclusive)

Structure (SMILES): Cc1ccc(S(=O)(=O)Nc2ccc3c(c2)C(=O)N([C@@H](C)CO)C[C@@H](C)[C@@H](CN(C)S(=O)(=O)c2ccc(Cl)cc2)OCCCC[C@@H](C)O3)cc1
- AC50 [6]: 10.4 µM (active)

Structure (SMILES): O=C(Nc1cc2c(oc1=O)CCCC2=O)c1ccc(Cl)cc1
- AC50 [2]: 14.1 µM (inconclusive)

Structure (SMILES): Oc1ccc(C[C@H]2CNC(=S)N2CC2CCCN2C[C@H](Cc2ccc(O)cc2)N2C[C@H](Cc3ccccc3)N(CC3CCCCCC3)C2=S)cc1 (some centres not stated)
- AC50 [6]: 9.86 µM (active)

Structure (SMILES): CC(C)(C)[Si](C)(C)c1c2c(nc3ccc(OCc4ccccc4)cc13)-c1cccc(=O)n1C2
- AC50 [3]: 20 µM (inconclusive)

Structure (SMILES): Cc1ncsc1CCCl [CLOMETHIAZOLE]
- AC50 [3]: 2.51 µM (inconclusive)

Structure (SMILES): CCOC(=O)C(C)n1cnc2c(oc3ccccc32)c1=O (configuration not stated)
- AC50 [1]: 31.6 µM (inconclusive)
- AC50 [3]: 28.2 µM (inconclusive)

Structure (SMILES): CC(C)(C)c1ccc(C(=O)Nc2ccc(S(N)(=O)=O)cc2)cc1
- CC50 [5]: 20.1 µM (active)

Structure (SMILES): O=[N+]([O-])c1ccc(NC(S)=NC(=NCS(=O)(=O)c2ccccc2)c2ccccc2)cc1
- CC50 [5]: 11.1 µM (active)

Structure (SMILES): COc1ccc2nc(-c3ccccc3)cc(OC)c2c1
- CC50 [5]: > 50 µM (active)

Structure (SMILES): N#Cc1nc(NCC(F)F)nc(Nc2cc(F)cc(F)c2)n1
- AC50 [6]: 5.01 µM (active)

Structure (SMILES): CC(C)NC(=O)c1onc(CSc2cccc3ccccc23)c1C(=O)O
- CC50 [5]: 12.6 µM (active)

Structure (SMILES): Cn1cccc1C(=O)N1CCC2(CCCN(c3ccncc3)C2)CC1
- AC50 [3]: 25.1 µM (inconclusive)

Structure (SMILES): Cc1ccc([N+](=O)[O-])cc1NC(=O)CN(C)CCOc1ccccc1
- CC50 [5]: 24.3 µM (active)

Structure (SMILES): Cn1c(CNC(=O)Nc2ccccc2)nnc1SCc1ccccc1
- AC50 [2]: 25.1 µM (inconclusive)

Structure (SMILES): Clc1ccc(OCCn2c(-c3ccco3)nc3ccccc32)cc1
- EC50 [4]: 12 µM (active)

Structure (SMILES): OC[C@@H](O)C1OC2N=C(S)OC2C1O (some centres not stated)
- EC50 [4]: > 260 µM (inactive)

Structure (SMILES): O=S(=O)(NC(=NCc1ccccc1)c1ccccc1)c1ccc(Br)cc1
- EC50 [9]: > 150 µM (not active)
- EC50 [10]: 33.4 µM (active)
- EC50 [11]: > 150 µM (not active)

Structure (SMILES): CCOC(=O)C1=C(N)c2ccccc2CC1C1CCCC1 (configuration not stated)
- EC50 [9]: 11.9 µM (active)
- EC50 [10]: 19.3 µM (active)
- EC50 [11]: 7.81 µM (active)

Structure (SMILES): CCOC(=O)NC1(C(F)(F)F)C(=O)N(Cc2ccccc2)C2=C1C(=O)CC(C)(C)C2 (configuration not stated)
- AC50 [3]: 28.2 µM (inconclusive)

Structure (SMILES): Cc1ccc(CS(=O)(=O)CCC(=O)NCc2cccs2)cc1
- AC50 [2]: 15.8 µM (inconclusive)
- AC50 [3]: 5.01 µM (inconclusive)

Structure (SMILES): CSCCC(NS(=O)(=O)c1cccc(C(F)(F)F)c1)C(=O)N(C)CCOc1ccc(Cl)cc1 (configuration not stated)
- EC50 [4]: > 260 µM (inactive)

Structure (SMILES): Cc1cc(Oc2ccc(Cl)cc2)nc(-c2ccccc2O)n1
- EC50 [9]: > 150 µM (not active)
- EC50 [10]: 14.6 µM (active)
- EC50 [11]: > 150 µM (not active)

Structure (SMILES): Cc1ccc(NC2=NC(N)=NC3(CCCC3)N2)c(C)c1
- EC50 [4]: > 260 µM (inactive)

Structure (SMILES): COc1ccc(/C=C(\C#N)C(=O)OCC(=O)Nc2ccc(-c3nc4ccc(C)cc4s3)cc2)cc1
- CC50 [5]: 18.6 µM (active)

Structure (SMILES): O=C(COC(=O)C1CCN(S(=O)(=O)c2cccc3cccnc23)CC1)c1ccc([N+](=O)[O-])cc1
- EC50 [4]: > 260 µM (inactive)

Structure (SMILES): C[C@H](CO)N1C[C@H](C)[C@H](CN(C)Cc2ccc(Cl)c(Cl)c2)OCCCC[C@H](C)Oc2ccc(NC(=O)NC3CCCCC3)cc2C1=O
- AC50 [6]: 11.7 µM (active)

Structure (SMILES): COc1cc(-c2cnc3c(NC=O)cc(-c4ccccc4)cn23)cc(OC)c1OC
- AC50 [6]: 2.79 µM (active)

Structure (SMILES): Cc1ccc(C2CC(C(F)F)n3ncc(C(=O)Nc4c(C)nn(Cc5c(F)cccc5Cl)c4C)c3N2)cc1 (configuration not stated)
- CC50 [5]: 19.9 µM (active)

Structure (SMILES): CCOC(=O)/C(=N/Nc1ccc(Cl)cc1)Sc1nnnn1-c1ccc(C)cc1
- EC50 [4]: > 260 µM (inactive)

Structure (SMILES): COC(=O)C(NC(=O)c1ccc(Cl)cc1)(Nc1nc(C)cs1)C(F)(F)F (configuration not stated)
- AC50 [2]: 28.2 µM (inconclusive)

Structure (SMILES): C/C=C1\COC(C(=O)NCc2ccccc2)(C(F)(F)F)C=C1C=C(C)C (configuration not stated)
- EC50 [4]: > 260 µM (inactive)

Structure (SMILES): C=C(C)Cn1c(SCC(=O)O)nnc1-c1ccc(OC)cc1
- EC50 [4]: > 260 µM (inactive)

Structure (SMILES): CCOC(=O)c1c(C)[nH]c(C)c1S(=O)(=O)N1CCN(c2ccc(F)cc2)CC1
- EC50 [4]: > 260 µM (inactive)
